Data published in PubChem BioAssay AID2060332 (Molecular Pharmacology Branch, DTP, NCI, 2025).
Where “and” joins values, the source holds several entries; their conditions need not be identical. Equal values may be shown once.

Tested on: LG0567-F671-PDC multi-cell spheroid viability
Assay: Anticancer human tumor LG0567-F671-PDC patient-derived lung adenocarcinoma cell line growth inhibition [IpAb]
Settings: for viability, T/C: stronger effect = lower value
Description: Combinatorial screen of targeted agents with ipatasertib and abemaciclib in multi-cell type tumor spheroids
A high-throughput screen of multi-cell type tumor spheroids was designed to identify active combinations of targeted small molecules and ipatasertib or abemaciclib. Complex spheroids include a stromal component modeled by human endothelial cells (HUVEC) and fibroblasts modeled by human mesenchymal stem cells (MSCs). The concentration ranges selected for each drug and investigational agent were based upon clinically achievable concentrations if the clinical Cmax of the agent was known.
Compounds. The drugs and investigational agents: ipatasertib (NSC767898), abemaciclib(NSC768073), selumetinib (NSC741078), trametinib (758246), adavosertib (NSC754352), everolimus (NSC733504), sapanisertib (NSC764658), vemurafenib (NSC761431), venetoclax (NSC766270), copanlisib (NSC809693), apelisib (NSC765974), palbociblib (NSC758247), vemurafenib (NSC761431), dabrafenib (NSC764134), ravoxertinib (NSC781343), BMS-387032 (NSC767048), sotorasib (NSC818433), talazoparib (NSC767125) and afursertib (NSC778305), were obtained from the National Cancer Institute (NCI) Developmental Therapeutics Program Chemical Repository. The FDA-approved anticancer drug set is available from the NCI Developmental Therapeutics Program. […] The stock solutions were prepared in dimethyl sulfoxide (DMSO, Sigma-Aldrich, St. Louis, MO, cat. D2650) at 800-fold the tested concentration and stored at -70 degrees C prior to their use. All drugs and investigational agents were tested over a range starting from a high concentration at or near the clinical Cmax and decreasing in half-log increments. If the clinical Cmax for an agent had not been determined, the highest concentration tested was 10 microM.
NCI60 Cell Culture. NCI60 cell lines were obtained from the NCI Developmental Therapeutics Program Tumor Repository. For each lot of cells, the Repository performed Applied Biosystems AmpFLSTR Identifiler testing with PCR amplification to confirm consistency with the published Identifier STR profile for each cell line. Cells were kept in continuous culture for no more than 20 passages. The optimal seeding densities for each of the cell lines at each time point assessed were determined prior to performing the concentration response studies. Briefly, the NCI60 human tumor lines were grown as monolayers in RPMI 1640 medium supplemented with 10% FBS and 2 mmol/L L-glutamine.
An additional 9 lines were from the NCI60 cell line panel including MDA-MB-231 breast carcinoma, MDA-MB-468 breast carcinoma, MCF7 breast carcinoma, Hs578T breast carcinoma, MALME-3M melanoma, SK-MEL-2 melanoma, SK-OV-3 ovarian carcinoma, DU-145 prostate carcinoma, PC-3 prostate carcinoma, all cell lines along with major genetic alterations are listed on Table 2. Pooled donor human umbilical vein endothelial cells (HUVEC, Lonza, cat. CC-2519) and human mesenchymal stem cells (hMSC, Lonza, cat. PT-2501) were purchased from Lonza (Walkersville, MD).
PDMR cell lines were grown in complete medium (DC medium): Dulbecco's modified Eagle's medium (DMEM)/F12 supplemented with 5% fetal bovine serum (FBS), 2 mM L-glutamine, 100 U/mL penicillin and 100 µg/ml streptomycin, 0.4 µg/ml hydrocortisone, 10 ng/ml epidermal growth factor (EGF) recombinant human protein, 24 µg/mL adenine, and 0.1 mg/mL primocin. During culture from frozen stock vials, PDMR cells were cultured in the same medium containing 10 µM Y-27632 (see Table 3). The PDCs were cultured in complete DMEM/F12 media without 10 microM Y-27632 dihydrochloride for at least two passages prior to the screen. The pooled donor HUVEC and hMSC were cultured in endothelial cell growth medium 2 (PromoCell, Heidelberg, Germany, cat. C-22011) and mesenchymal stem cell growth medium 2 (PromoCell, cat. C-28009), respectively. For all experiments, HUVEC and hMSC were used at passages </=5.
[…]

[1] = curve of first compound, second compound 0.01 µM
[2] = curve of first compound, second compound 0.0316 µM
[3] = curve of first compound, second compound 0.1 µM
[4] = curve of first compound, second compound 0.316 µM
[5] = curve of first compound, second compound 1 µM
[6] = second compound 0.01 µM, first compound 0.00949 µM
[7] = second compound 0.01 µM, first compound 0.03 µM
[8] = second compound 0.01 µM, first compound 0.0949 µM
[9] = second compound 0.01 µM, first compound 0.3 µM
[10] = second compound 0.01 µM, first compound 0.949 µM
[11] = second compound 0.01 µM, first compound 3 µM
[12] = second compound 0.0316 µM, first compound 0.00949 µM
[13] = second compound 0.0316 µM, first compound 0.03 µM
[14] = second compound 0.0316 µM, first compound 0.0949 µM
[15] = second compound 0.0316 µM, first compound 0.3 µM
[16] = second compound 0.0316 µM, first compound 0.949 µM
[17] = second compound 0.0316 µM, first compound 3 µM
[18] = second compound 0.1 µM, first compound 0.00949 µM
[19] = second compound 0.1 µM, first compound 0.03 µM
[20] = second compound 0.1 µM, first compound 0.0949 µM
[21] = second compound 0.1 µM, first compound 0.3 µM
[22] = second compound 0.1 µM, first compound 0.949 µM
[23] = second compound 0.1 µM, first compound 3 µM
[24] = second compound 0.316 µM, first compound 0.00949 µM
[25] = second compound 0.316 µM, first compound 0.03 µM
[26] = second compound 0.316 µM, first compound 0.0949 µM
[27] = second compound 0.316 µM, first compound 0.3 µM
[28] = second compound 0.316 µM, first compound 0.949 µM
[29] = second compound 0.316 µM, first compound 3 µM
[30] = second compound 1 µM, first compound 0.00949 µM
[31] = second compound 1 µM, first compound 0.03 µM
[32] = second compound 1 µM, first compound 0.0949 µM
[33] = second compound 1 µM, first compound 0.3 µM
[34] = second compound 1 µM, first compound 0.949 µM
[35] = second compound 1 µM, first compound 3 µM
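Also: viability read after 7 days of drug exposure.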
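For viability, T/C in this document: 100% = DMSO vehicle control luminescence.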

Molecule COc1c(OCCCN2CCOCC2)ccc2c3n(c(=NC(=O)c4cnc(N)nc4)nc12)CCN3 + CCN1CCN(Cc2ccc(Nc3ncc(F)c(-c4cc(F)c5nc(C)n(C(C)C)c5c4)n3)nc2)CC1 has an IC50 [1] of 76.5 nM, an IC50 [2] of 60.9 nM and an IC50 [3] of 60 nM. The IC50 [4] was 22.8 nM, the IC50 [5] was 73.4 nM and the viability, T/C (second compound 0.01 µM, first compound 0.00316 µM) was 85.5%. It also gave a viability, T/C (second compound 0.01 µM, first compound 0.01 µM) of 72.7%, a viability, T/C (second compound 0.01 µM, first compound 0.0316 µM) of 77.5% and a viability, T/C (second compound 0.01 µM, first compound 0.1 µM) of 41.6%. The viability, T/C (second compound 0.01 µM, first compound 0.316 µM) was 36.5%, the viability, T/C (second compound 0.01 µM, first compound 1 µM) was 31.8% and the viability, T/C (second compound 0.0316 µM, first compound 0.00316 µM) was 105%. It also gave a viability, T/C (second compound 0.0316 µM, first compound 0.01 µM) of 74.6%, a viability, T/C (second compound 0.0316 µM, first compound 0.0316 µM) of 60.5% and a viability, T/C (second compound 0.0316 µM, first compound 0.1 µM) of 43.1%. The viability, T/C (second compound 0.0316 µM, first compound 0.316 µM) was 34.5%, the viability, T/C (second compound 0.0316 µM, first compound 1 µM) was 17.6% and the viability, T/C (second compound 0.1 µM, first compound 0.00316 µM) was 73%. It also gave a viability, T/C (second compound 0.1 µM, first compound 0.01 µM) of 63.4%, a viability, T/C (second compound 0.1 µM, first compound 0.0316 µM) of 62.5% and a viability, T/C (second compound 0.1 µM, first compound 0.1 µM) of 40.4%. It also gave a viability, T/C (second compound 0.1 µM, first compound 0.316 µM) of 32.5%, a viability, T/C (second compound 0.1 µM, first compound 1 µM) of 26.6% and a viability, T/C (second compound 0.316 µM, first compound 0.00316 µM) of 67.8%. The viability, T/C (second compound 0.316 µM, first compound 0.01 µM) was 74.2%, the viability, T/C (second compound 0.316 µM, first compound 0.0316 µM) was 41.6% and the viability, T/C (second compound 0.316 µM, first compound 0.1 µM) was 33.2%. It also gave a viability, T/C (second compound 0.316 µM, first compound 0.316 µM) of 31.5%, a viability, T/C (second compound 0.316 µM, first compound 1 µM) of 20.5% and a viability, T/C (second compound 1 µM, first compound 0.00316 µM) of 69.7%. It also gave a viability, T/C (second compound 1 µM, first compound 0.01 µM) of 71.1%, a viability, T/C (second compound 1 µM, first compound 0.0316 µM) of 56% and a viability, T/C (second compound 1 µM, first compound 0.1 µM) of 43.2%. The viability, T/C (second compound 1 µM, first compound 0.316 µM) was 40.8% and the viability, T/C (second compound 1 µM, first compound 1 µM) was 25.1%.
In the case of Cn1cnc2c(F)c(Nc3ccc(Br)cc3Cl)c(C(=O)NOCCO)cc21 + CCN1CCN(Cc2ccc(Nc3ncc(F)c(-c4cc(F)c5nc(C)n(C(C)C)c5c4)n3)nc2)CC1, the IC50 [1] is reported as 19.1 nM, the IC50 [2] is reported as 11.9 nM and the IC50 [3] is reported as less than 9.49 nM. The IC50 [4] was less than 9.49 nM, the IC50 [5] was less than 9.49 nM and the viability, T/C [6] was 55%. For the same molecule, the viability, T/C [7] was 48%, the viability, T/C [8] was 28.8% and the viability, T/C [9] was 22.5%. It also gave a viability, T/C [10] of 19.9%, a viability, T/C [11] of 13.4% and a viability, T/C [12] of 53.5%. The viability, T/C [13] was 36.4%, the viability, T/C [14] was 27.9% and the viability, T/C [15] was 17.3%. It also gave a viability, T/C [16] of 20.2%, a viability, T/C [17] of 13.5% and a viability, T/C [18] of 47.5%. For the same molecule, the viability, T/C [19] was 38.5%, the viability, T/C [20] was 28% and the viability, T/C [21] was 17.4%. For the same molecule, the viability, T/C [22] was 17%, the viability, T/C [23] was 10.6% and the viability, T/C [24] was 48.8%. For the same molecule, the viability, T/C [25] was 29.9%, the viability, T/C [26] was 33.6% and the viability, T/C [27] was 24.7%. It also gave a viability, T/C [28] of 17.4%, a viability, T/C [29] of 11.4% and a viability, T/C [30] of 45%. It also gave a viability, T/C [31] of 35.2%, a viability, T/C [32] of 29.6% and a viability, T/C [33] of 27.5%. The viability, T/C [34] was 18.6% and the viability, T/C [35] was 11.3%.
In the case of CC(C)NCC(C(=O)N1CCN(c2ncnc3c2C(C)CC3O)CC1)c1ccc(Cl)cc1 (stereo not given), the viability, T/C (compound 0.316 µM) is reported as 71.7% [middle of 13 runs], the viability, T/C (compound 10 µM) is reported as 71.6% [middle of 13 runs] and the IC50 (compound alone, run of 06/01/2021) is reported as greater than 10000 nM.
For CC(C)n1nc(-c2ccc3oc(N)nc3c2)c2c(N)ncnc21, the viability, T/C (compound 0.000316 µM) was 108% and 95.6%, the viability, T/C (compound 0.001 µM) was 79.7% and 87.8% and the viability, T/C (compound 0.00316 µM) was 90.1% and 102%. The viability, T/C (compound 0.01 µM) was 64% and 55.8%, the viability, T/C (compound 0.0316 µM) was 78.1% and 50% and the viability, T/C (compound 0.1 µM) was 66.9% and 56.8%. It also gave an IC50 (curve of compound) greater than 100 nM.
CC(C)(C)c1cnc(CSc2cnc(NC(=O)C3CCNCC3)s2)o1 + CCN1CCN(Cc2ccc(Nc3ncc(F)c(-c4cc(F)c5nc(C)n(C(C)C)c5c4)n3)nc2)CC1 showed an IC50 [1] of 152 nM, an IC50 [2] of 129 nM and an IC50 [3] of 106 nM. The IC50 [4] was 74.2 nM, the IC50 [5] was 52.5 nM and the viability, T/C [6] was 108%. It also gave a viability, T/C [7] of 118%, a viability, T/C [8] of 82.8% and a viability, T/C [9] of 3.32%. For the same molecule, the viability, T/C [10] was 1.33%, the viability, T/C [11] was 0.84% and the viability, T/C [12] was 86.5%. The viability, T/C [13] was 92.3%, the viability, T/C [14] was 66.8% and the viability, T/C [15] was 4.66%. For the same molecule, the viability, T/C [16] was 1.42%, the viability, T/C [17] was 0.84% and the viability, T/C [18] was 62.2%. For the same molecule, the viability, T/C [19] was 81.8%, the viability, T/C [20] was 55.4% and the viability, T/C [21] was 2.56%. For the same molecule, the viability, T/C [22] was 1.28%, the viability, T/C [23] was 0.81% and the viability, T/C [24] was 56%. It also gave a viability, T/C [25] of 73.7%, a viability, T/C [26] of 45.9% and a viability, T/C [27] of 3.08%. It also gave a viability, T/C [28] of 1.56%, a viability, T/C [29] of 1.05% and a viability, T/C [30] of 58.5%. For the same molecule, the viability, T/C [31] was 66%, the viability, T/C [32] was 37% and the viability, T/C [33] was 4.69%. It also gave a viability, T/C [34] of 2.05% and a viability, T/C [35] of 1.1%.
